Converted amounts (≈) assume the structure as drawn.
What was measured:
Format in all cases: cell-based
Conditions in all cases: cation adjusted Mueller-Hinton broth, 35° C., 16-20 hours
[1] = test system: Staphylococcus aureus ATCC 29213; assay: In vitro antibacterial activity, microdilution broth MIC (NCCLS M7-A4), strain B
Experimental: (§1) Minimum inhibitory concentration (MIC) is an indicator of in vitro antibacterial activity. […] The in vitro antimicrobial activity of representative compounds of the present invention was determined by the microdilution broth method following the test method from the National Committee for Clinical Laboratory Standards (NCCLS). This method is described in the NCCLS Document M7-A4, Vol. 17, No. 2, “Methods for Dilution Antimicrobial Susceptibility Test for Bacteria that Grow Aerobically—Fourth Edition”, which is incorporated herein by reference.
(§2) In this method two-fold serial dilutions of drug in cation adjusted Mueller-Hinton broth were added to wells in microdilution trays. The test organisms were prepared by adjusting the turbidity of actively growing broth cultures so that the final concentration of test organism after it is added to the wells was approximately 5×10^4 CFU/well. Following inoculation of the microdilution trays, the trays were incubated at 35° C. for 16-20 hours and then read. The amount of growth in the wells containing the test compound was compared with the amount of growth in the growth-control wells (no test compound) used in each tray.

[2] = test system: Methicillin-resistant Staphylococcus aureus OC 3726 COL; assay: In vitro antibacterial activity, microdilution broth MIC (NCCLS M7-A4), strain C
Experimental: as §1, §2

[3] = test system: Staphylococcus aureus OC4172; assay: In vitro antibacterial activity, microdilution broth MIC (NCCLS M7-A4), strain D
Experimental: as §1, §2

[4] = test system: Enterococcus faecium OC 3312 vancomycin-resistant; assay: In vitro antibacterial activity, microdilution broth MIC (NCCLS M7-A4), strain A
Experimental: as §1, §2

COC1C=COC2(C)Oc3c(C)c(O)c4c(O)c(c(C=NN5CCN(Cc6cc(CN(C)C)no6)CC5)c(O)c4c3C2=O)NC(=O)C(C)=CC=CC(C)C(O)C(C)C(O)C(C)C(OC(C)=O)C1C (stereo not shown) [Compound 12]
MIC (μg/mL) B Strain [1]: 0.06 µg/mL (≈ 0.0634 µM) | MIC (μg/mL) C Strain [2]: ≦0.03 μg/mL | MIC (μg/mL) D Strain [3]: ≦0.03 μg/mL | MIC (μg/mL) A Strain [4]: 0.12 µg/mL (≈ 0.127 µM)

COC(=O)c1c(-c2ccc(Cl)cc2)noc1CN1CCN(N=Cc2c3c(O)c4c(O)c(C)c5c(c4c2O)C(=O)C(C)(OC=CC(OC)C(C)C(OC(C)=O)C(C)C(O)C(C)C(O)C(C)C=CC=C(C)C(=O)N3)O5)CC1 (stereo not shown) [Compound 18]
MIC (μg/mL) B Strain [1]: 1 µg/mL (≈ 0.945 µM) | MIC (μg/mL) C Strain [2]: 0.5 µg/mL (≈ 0.472 µM) | MIC (μg/mL) D Strain [3]: 0.5 µg/mL (≈ 0.472 µM) | MIC (μg/mL) A Strain [4]: 1 µg/mL (≈ 0.945 µM)

COC1C=COC2(C)Oc3c(C)c(O)c4c(O)c(c(C=NN5CCN(Cc6ccc(-c7ccccc7Cl)o6)CC5)c(O)c4c3C2=O)NC(=O)C(C)=CC=CC(C)C(O)C(C)C(O)C(C)C(OC(C)=O)C1C (stereo not shown) [Compound 22]
MIC (μg/mL) B Strain [1]: 0.5 µg/mL (≈ 0.5 µM) | MIC (μg/mL) C Strain [2]: 0.5 µg/mL (≈ 0.5 µM) | MIC (μg/mL) D Strain [3]: 0.25 µg/mL (≈ 0.25 µM) | MIC (μg/mL) A Strain [4]: 0.5 µg/mL (≈ 0.5 µM)

COC1C=COC2(C)Oc3c(C)c(O)c4c(O)c(c(C=NN5CCN(Cc6cc(-c7ccncc7)no6)CC5)c(O)c4c3C2=O)NC(=O)C(C)=CC=CC(C)C(O)C(C)C(O)C(C)C(OC(C)=O)C1C (stereo not shown) [Compound 15]
MIC (μg/mL) B Strain [1]: ≦0.03 μg/mL | MIC (μg/mL) C Strain [2]: ≦0.03 μg/mL | MIC (μg/mL) D Strain [3]: ≦0.03 μg/mL | MIC (μg/mL) A Strain [4]: 0.06 µg/mL (≈ 0.062 µM)

COC1C=COC2(C)Oc3c(C)c(O)c4c(O)c(c(C=NN5CCN(Cc6cc(-c7ccc(NC(C)=O)cc7)no6)CC5)c(O)c4c3C2=O)NC(=O)C(C)=CC=CC(C)C(O)C(C)C(O)C(C)C(OC(C)=O)C1C (stereo not shown) [Compound 16]
MIC (μg/mL) B Strain [1]: 0.06 µg/mL (≈ 0.0586 µM) | MIC (μg/mL) C Strain [2]: 0.06 µg/mL (≈ 0.0586 µM) | MIC (μg/mL) D Strain [3]: ≦0.03 μg/mL | MIC (μg/mL) A Strain [4]: 0.12 µg/mL (≈ 0.117 µM)

COc1ccc(-c2cc(CN3CCN(N=Cc4c5c(O)c6c(O)c(C)c7c(c6c4O)C(=O)C(C)(OC=CC(OC)C(C)C(OC(C)=O)C(C)C(O)C(C)C(O)C(C)C=CC=C(C)C(=O)N5)O7)CC3)on2)cc1 (stereo not shown) [Compound 9]
MIC (μg/mL) B Strain [1]: 0.25 µg/mL (≈ 0.251 µM) | MIC (μg/mL) C Strain [2]: 0.12 µg/mL (≈ 0.12 µM) | MIC (μg/mL) D Strain [3]: 0.12 µg/mL (≈ 0.12 µM) | MIC (μg/mL) A Strain [4]: 0.25 µg/mL (≈ 0.251 µM)

COC1C=COC2(C)Oc3c(C)c(O)c4c(O)c(c(C=NN5CCN(Cc6cc(C)no6)CC5)c(O)c4c3C2=O)NC(=O)C(C)=CC=CC(C)C(O)C(C)C(O)C(C)C(OC(C)=O)C1C (stereo not shown) [Compound 10]
MIC (μg/mL) B Strain [1]: ≦0.03 μg/mL | MIC (μg/mL) C Strain [2]: ≦0.03 μg/mL | MIC (μg/mL) D Strain [3]: ≦0.03 μg/mL | MIC (μg/mL) A Strain [4]: 0.06 µg/mL (≈ 0.0664 µM)

COC1C=COC2(C)Oc3c(C)c(O)c4c(O)c(c(C=NN5CCN(Cc6cc(-c7ccc(C(F)(F)F)cc7)no6)CC5)c(O)c4c3C2=O)NC(=O)C(C)=CC=CC(C)C(O)C(C)C(O)C(C)C(OC(C)=O)C1C (stereo not shown) [Compound 7]
MIC (μg/mL) B Strain [1]: 0.5 µg/mL (≈ 0.484 µM) | MIC (μg/mL) C Strain [2]: 0.25 µg/mL (≈ 0.242 µM) | MIC (μg/mL) D Strain [3]: 0.12 µg/mL (≈ 0.116 µM) | MIC (μg/mL) A Strain [4]: 1 µg/mL (≈ 0.967 µM)

COC1C=COC2(C)Oc3c(C)c(O)c4c(O)c(c(C=NN5CCN(Cc6cc(-c7ccccn7)no6)CC5)c(O)c4c3C2=O)NC(=O)C(C)=CC=CC(C)C(O)C(C)C(O)C(C)C(OC(C)=O)C1C (stereo not shown) [Compound 13]
MIC (μg/mL) B Strain [1]: ≦0.03 μg/mL | MIC (μg/mL) C Strain [2]: ≦0.03 μg/mL | MIC (μg/mL) D Strain [3]: ≦0.03 μg/mL | MIC (μg/mL) A Strain [4]: 0.06 µg/mL (≈ 0.062 µM)

COC1C=COC2(C)Oc3c(C)c(O)c4c(O)c(c(C=NN5CCN(Cc6cc(CO)no6)CC5)c(O)c4c3C2=O)NC(=O)C(C)=CC=CC(C)C(O)C(C)C(O)C(C)C(OC(C)=O)C1C (stereo not shown) [Compound 11]
MIC (μg/mL) B Strain [1]: 0.06 µg/mL (≈ 0.0652 µM) | MIC (μg/mL) C Strain [2]: ≦0.03 μg/mL | MIC (μg/mL) D Strain [3]: ≦0.03 μg/mL | MIC (μg/mL) A Strain [4]: 0.25 µg/mL (≈ 0.272 µM)

COC1C=COC2(C)Oc3c(C)c(O)c4c(O)c(c(C=NN5CCN(Cc6cc(-c7cccnc7)no6)CC5)c(O)c4c3C2=O)NC(=O)C(C)=CC=CC(C)C(O)C(C)C(O)C(C)C(OC(C)=O)C1C (stereo not shown) [Compound 14]
MIC (μg/mL) B Strain [1]: ≦0.03 μg/mL | MIC (μg/mL) C Strain [2]: ≦0.03 μg/mL | MIC (μg/mL) D Strain [3]: ≦0.03 μg/mL | MIC (μg/mL) A Strain [4]: 0.06 µg/mL (≈ 0.062 µM)

COC1C=COC2(C)Oc3c(C)c(O)c4c(O)c(c(C=NN5CCN(Cc6cc(-c7ccc(OCCCN(C)C)cc7)no6)CC5)c(O)c4c3C2=O)NC(=O)C(C)=CC=CC(C)C(O)C(C)C(O)C(C)C(OC(C)=O)C1C (stereo not shown) [Compound 17]
MIC (μg/mL) B Strain [1]: 0.12 µg/mL (≈ 0.112 µM) | MIC (μg/mL) C Strain [2]: 0.12 µg/mL (≈ 0.112 µM) | MIC (μg/mL) D Strain [3]: 0.12 µg/mL (≈ 0.112 µM) | MIC (μg/mL) A Strain [4]: 0.25 µg/mL (≈ 0.234 µM)

COC1C=COC2(C)Oc3c(C)c(O)c4c(O)c(c(C=NN5CCN(CCc6cc(-c7ccc(Cl)cc7)no6)CC5)c(O)c4c3C2=O)NC(=O)C(C)=CC=CC(C)C(O)C(C)C(O)C(C)C(OC(C)=O)C1C (stereo not shown) [Compound 26]
MIC (μg/mL) B Strain [1]: 0.5 µg/mL (≈ 0.493 µM) | MIC (μg/mL) C Strain [2]: 0.25 µg/mL (≈ 0.246 µM) | MIC (μg/mL) D Strain [3]: 0.25 µg/mL (≈ 0.246 µM) | MIC (μg/mL) A Strain [4]: 0.5 µg/mL (≈ 0.493 µM)

COC1C=COC2(C)Oc3c(C)c(O)c4c(O)c(c(C=NN5CCN(Cc6ccc(-c7ccc(Cl)cc7)o6)CC5)c(O)c4c3C2=O)NC(=O)C(C)=CC=CC(C)C(O)C(C)C(O)C(C)C(OC(C)=O)C1C (stereo not shown) [Compound 23]
MIC (μg/mL) B Strain [1]: 0.25 µg/mL (≈ 0.25 µM) | MIC (μg/mL) C Strain [2]: 0.25 µg/mL (≈ 0.25 µM) | MIC (μg/mL) D Strain [3]: 0.25 µg/mL (≈ 0.25 µM) | MIC (μg/mL) A Strain [4]: 0.5 µg/mL (≈ 0.5 µM)

COC1C=COC2(C)Oc3c(C)c(O)c4c(O)c(c(C=NN5CCN(Cc6cn(-c7ccc(Cl)cc7)nn6)CC5)c(O)c4c3C2=O)NC(=O)C(C)=CC=CC(C)C(O)C(C)C(O)C(C)C(OC(C)=O)C1C (stereo not shown) [Compound 24]
MIC (μg/mL) B Strain [1]: 0.12 µg/mL (≈ 0.12 µM) | MIC (μg/mL) C Strain [2]: ≦0.12 μg/mL | MIC (μg/mL) D Strain [3]: 0.06 µg/mL (≈ 0.06 µM) | MIC (μg/mL) A Strain [4]: 0.12 µg/mL (≈ 0.12 µM)

COC1C=COC2(C)Oc3c(C)c(O)c4c(O)c(c(C=NN5CCN(CCCc6cc(-c7ccccc7)no6)CC5)c(O)c4c3C2=O)NC(=O)C(C)=CC=CC(C)C(O)C(C)C(O)C(C)C(OC(C)=O)C1C (stereo not shown) [Compound 27]
MIC (μg/mL) B Strain [1]: 0.5 µg/mL (≈ 0.503 µM) | MIC (μg/mL) C Strain [2]: 0.5 µg/mL (≈ 0.503 µM) | MIC (μg/mL) D Strain [3]: 0.5 µg/mL (≈ 0.503 µM) | MIC (μg/mL) A Strain [4]: 0.5 µg/mL (≈ 0.503 µM)

COC1C=COC2(C)Oc3c(C)c(O)c4c(O)c(c(C=NN5CCN(Cc6cc(-c7ccc(Cl)cc7)no6)CC5)c(O)c4c3C2=O)NC(=O)C(C)=CC=CC(C)C(O)C(C)C(O)C(C)C(OC(C)=O)C1C (stereo not shown) [Compound 2]
MIC (μg/mL) B Strain [1]: 0.5 µg/mL (≈ 0.5 µM) | MIC (μg/mL) C Strain [2]: 0.5 µg/mL (≈ 0.5 µM) | MIC (μg/mL) D Strain [3]: 0.5 µg/mL (≈ 0.5 µM) | MIC (μg/mL) A Strain [4]: 1 µg/mL (≈ 0.999 µM)

COC1C=COC2(C)Oc3c(C)c(O)c4c(O)c(c(C=NN5CCN(Cc6ccc(-c7ccccc7)s6)CC5)c(O)c4c3C2=O)NC(=O)C(C)=CC=CC(C)C(O)C(C)C(O)C(C)C(OC(C)=O)C1C (stereo not shown) [Compound 20]
MIC (μg/mL) B Strain [1]: 2 µg/mL (≈ 2.04 µM) | MIC (μg/mL) C Strain [2]: 1 µg/mL (≈ 1.02 µM) | MIC (μg/mL) D Strain [3]: 2 µg/mL (≈ 2.04 µM) | MIC (μg/mL) A Strain [4]: 2 µg/mL (≈ 2.04 µM)

COC1C=COC2(C)Oc3c(C)c(O)c4c(O)c(c(C=NN5CCN(Cc6cc(-c7ccc(F)cc7)no6)CC5)c(O)c4c3C2=O)NC(=O)C(C)=CC=CC(C)C(O)C(C)C(O)C(C)C(OC(C)=O)C1C (stereo not shown) [Compound 5]
MIC (μg/mL) B Strain [1]: 0.25 µg/mL (≈ 0.254 µM) | MIC (μg/mL) C Strain [2]: 0.12 µg/mL (≈ 0.122 µM) | MIC (μg/mL) D Strain [3]: 0.12 µg/mL (≈ 0.122 µM) | MIC (μg/mL) A Strain [4]: 0.25 µg/mL (≈ 0.254 µM)

Reference: patent publication US20090275594A1, “3-HYDRAZONE PIPERAZINYL RIFAMYCIN DERIVATIVES USEFUL AS ANTIMICROBIAL AGENTS” (priority 2008, published 2009)
